In patent EP1012175B1, “A PEPTIDE WITH AN AFFINITY FOR CLOTTING FACTOR VIII” (Octapharma AG, priority 1997, dated 2003):
Entries after “also recorded” stand apart in the source; their conditions may differ.

Key:
[1] = test system: pdFVIII (Faktor VIII aus Plasma); assay: Membrane spot binding test: immobilised peptides incubated with plasma-derived factor VIII (Octavi), detected with anti-FVIII antibodies; parameters: species or system human; conditions: peptide immobilised on membrane; Octavi 240 Units in 10 ml PBS pH 7.0 with 1% BSA, 2 h; binders appear as coloured spots
Method: (§1) Die Peptide Seq. Id. No. 55 bis 90 wurden auf einer Membran immobilisiert. Nach Äquilibrieren mit PBS Puffer pH 7.0 wurde eine Membran mit Faktor VIII Octavi® (240 Units in 10 ml PBS pH 7.0 mit 1% BSA), eine andere mit Kogenate® (250 U in 10 ml PBS, pH 7.0 mit 1% BSA) und eine nur mit PBS, pH 7.0 mit 1% BSA für zwei Stunden inkubiert. Die mit den Peptiden besetzten Membranen wurden sorgfältig mit PBS Puffer pH 7.0 gewaschen und anschließend mit den Anti-FVIII Antikörpern (Chemicon International Inc., MAB038, Sera-Lab MAS 530, MAS 531, MAS 532) für eine Stunde versetzt. Nach Waschen und Inkubieren mit Anti-Maus-IgG/alkalische Phosphatase Konjugat (1:1000, Sigma Chemicals, A-4338) wurde mit Hilfe von NBT und BCIP in 0,1 M Trispuffer, pH 9,2, entwickelt. Faktor VIII bindende Peptide erschienen als gefärbte Spots. Die Kontrollmembran (nur mit PBS pH 7.0 ohne Faktor VIII) wurde mit den beiden anderen verglichen.

[2] = test system: rekombinanten Faktor VIII; assay: Membrane spot binding test: immobilised peptides incubated with recombinant factor VIII (Kogenate), detected with anti-FVIII antibodies; conditions: peptide immobilised on membrane; Kogenate 250 U in 10 ml PBS pH 7.0 with 1% BSA, 2 h; binders appear as coloured spots
Method: as §1

[3] = test system: rekombinantem Faktor VIII aus Kogenate®; assay: Affinity chromatography of recombinant factor VIII (Kogenate) on peptide membranes; eluates analysed by Western blot; type: binding; conditions: for Western Blot der Eluate: eluate of rFVIII (Kogenate) run, control membrane also positive; for Elutionspeak: rFVIII (Kogenate), elution with 0,1 M Glycin pH 3.0, compared with ßAla-ßAla control membrane
Source text: (§2) Aus Membranen, auf die die jeweiligen Peptide immobilisiert wurden, wurden jeweils 30 Scheiben mit einem Durchmesser von 11 mm ausgestanzt. Diese wurden in eine HR 10 Säule (Pharmacia Biotechnology, Uppsala, Schweden) gepackt und zwischen zwei Stempeln fixiert.
(§3) Für alle chromatographischen Experimente wurde das Chromatographiesystem ProSys (Biosepra Inc. Marlborough, USA) verwendet.
(§4) PBS Puffer pH 7.0 wurde als Äquilibrierungs- und Waschpuffer verwendet. Für die Elution wurde ein 0,1 M Glycinpuffer pH 3.0 angewandt. Die Flußgeschwindigkeit betrug bei allen Versuchen 0,1 ml/min.
Die Bindung von rekombinantem Faktor VIII wurde mittels Kogenate® (Firma Bayer) untersucht. Jeweils 400 µl des Präparates (200 Units) wurden mit 1.400 µl destilliertem Wasser verdünnt und anschließend mit einer Flußrate von 0,1 ml/min auf den Affinitätsträger aufgetragen. Das Waschen erfolgte wiederum mit PBS, pH 7.0 und die darauf folgende Elution mit 0,1 M Glycin, pH 3.0. Die Fraktionen wurden mittels SDS-Page unter reduzierenden Bedingungen und Western-Blot analysiert.
(§5) Der Durchlauf und die Eluate aller Läufe wurden gesammelt und mittels SDS-PAGE unter reduzierenden Bedingungen und Western-Blot analysiert.
Für die Auftrennung wurden 4 bis 20% Tris-Glycin Gele von Novex verwendet. […] Nach der Trennung wurden die Gele silbergefärbt und eingescannt.
Nach Beendigung der elektrophoretischen Trennung wurden die Gele auf eine Nitrocellulose Membran bei 200 mA konstant für zwei Stunden elektrogeblottet. Anschließend wurde die Membran mit PBS + 3% BSA für zwei Stunden blockiert. […] Die Entwicklung erfolgte mit 0,1 M Tris, pH 9.2, NBT und BCIP.
(§6) Die Affinitätschromatographie wurde wie im Beispiel 1 beschrieben, durchgeführt.

pdFVIII = assay: Affinity chromatography of pdFVIII on peptide membranes; eluates analysed by SDS-PAGE and Western blot; type: binding, human; conditions: for Banden in der SDS-PAGE unter reduzierenden Bedingungen und Silberfärbung / Western Blot des Eluates: eluate of pdFVIII run; for Banden in der SDS-PAGE unter reduzierenden Bedingungen und Silberfärbung / Elutionspeak: compared with (βAla)2 control membrane; for Western Blot des Eluates: control membrane weakly positive; for Eignung für die Affinitätschromatographie von pdFVIII: general statement of the description; for Elutionspeak: pdFVIII, elution with 0,1 M Glycin pH 3.0
Source text: as §2, §3, §4
Lyophilisierter Faktor VIII aus Plasma wurde in 11 ml destilliertem Wasser zu einer Konzentration von 90 Units/ml aufgelöst. Davon wurden jeweils 4 ml mit einer Flußrate von 0,1 ml/min aufgetragen. Anschließend wurden die Affinitätsträger mit PBS-Puffer pH 7.0 gewaschen bis das UV Signal (280 nm) wieder die Basislinie erreichte. Das gebundene Material wurde mit 0,1 M Glycin pH 3.0 eluiert. Die gesammelten Fraktionen wurde mittels SDS-Page unter reduzierenden Bedingungen und Western Blot analysiert. Auf diese Weise wurden Peptide und der ßAla-ßAla-Blank auf ihre Fähigkeit Faktor VIII aus dem Octavipräparat zu binden untersucht.
as §5
Für die Auftrennung wurden 4 bis 20% Tris-Glycin Gele von Novex verwendet. Die Proben wurden mit SDS-Probepuffer (1,5 M Tris HCl pH 8.45, 1,2 ml Glycerin, 0,4 g SDS, 0,1% Coomassie Blue, 0,1% Phenol Rot pro 10 ml), und 5% ß-Mercaptoethanol versetzt und über Nacht bei 4°C inkubiert. Nach der Trennung wurden die Gele silbergefärbt und eingescannt.
Nach Beendigung der elektrophoretischen Trennung wurden die Gele auf eine Nitrocellulose Membran bei 200 mA konstant für zwei Stunden elektrogeblottet. Anschließend wurde die Membran mit PBS + 3% BSA für zwei Stunden blockiert. Nach Waschen mit PBS Puffer erfolgte die Zugabe der Anti-FVIII Antikörpermischung (Chemicon International Inc., MAB038, Sera-Lab MAS 530, MAS 531, MAS 532) für zwei Stunden. Nach Waschen mit PBS wurde mit Anti Maus IgG alkalische Phosphatase (1:1000, Sigma Chemicals, A-3438) für eine Stunde inkubiert. Die Entwicklung erfolgte mit 0,1 M Tris, pH 9.2, NBT und BCIP.
as §6

61 (VMKSCEYC) [compound 61]
Bindung zu pdFVIII (Faktor VIII aus Plasma) [1]: Bindung zu pdFVIII
Bindung von rekombinantem Faktor VIII [2]: keinen rekombinanten Faktor VIII

66 (VMKSWEEF) [compound 66]
Bindung zu pdFVIII (Faktor VIII aus Plasma) [1]: auffallende Affinität; also recorded: Bindung zu pdFVIII
Bindung von rekombinantem Faktor VIII [2]: auffallende Affinität; also recorded: binden rekombinanten Faktor VIII
Western Blot der Eluate [3]: positiv
Eignung für die Affinitätschromatographie von rFVIII (rekombinantem Faktor VIII) ([3]; general statement of the description): eignen sich insbesondere
Elutionspeak [3]: deutlich größer
Banden in der SDS-PAGE unter reduzierenden Bedingungen und Silberfärbung (pdFVIII): intensiver gefärbte Banden
Western Blot des Eluates (pdFVIII): positiv
Eignung für die Affinitätschromatographie von pdFVIII (pdFVIII): eignen sich insbesondere
Elutionspeak (pdFVIII): größere Elutionspeaks

68 (EWIKCEEF) [compound 68]
Bindung von rekombinantem Faktor VIII [2]: binden rekombinanten Faktor VIII

71 (EWIKWEYC) [compound 71]
Bindung zu pdFVIII (Faktor VIII aus Plasma) [1]: Bindung zu pdFVIII
Bindung von rekombinantem Faktor VIII [2]: binden rekombinanten Faktor VIII

72 (EWIKWEEF) [compound 72]
Bindung zu pdFVIII (Faktor VIII aus Plasma) [1]: auffallende Affinität; also recorded: Bindung zu pdFVIII
Bindung von rekombinantem Faktor VIII [2]: auffallende Affinität; also recorded: binden rekombinanten Faktor VIII
Banden in der SDS-PAGE unter reduzierenden Bedingungen und Silberfärbung (pdFVIII): intensiver gefärbte Banden
Western Blot des Eluates (pdFVIII): positiv
Eignung für die Affinitätschromatographie von pdFVIII (pdFVIII): eignen sich insbesondere
Elutionspeak (pdFVIII): größere Elutionspeaks

76 (EWKSEFEF) [compound 76]
Bindung zu pdFVIII (Faktor VIII aus Plasma) [1]: Bindung zu pdFVIII

77 (EWKSWEYC) [compound 77]
Bindung zu pdFVIII (Faktor VIII aus Plasma) [1]: Bindung zu pdFVIII

78 (EWKSWEEF) [compound 78]
Bindung zu pdFVIII (Faktor VIII aus Plasma) [1]: auffallende Affinität; also recorded: Bindung zu pdFVIII
Bindung von rekombinantem Faktor VIII [2]: auffallende Affinität

84 (EYIKWEEF) [compound 84]
Bindung zu pdFVIII (Faktor VIII aus Plasma) [1]: auffallende Affinität
Bindung von rekombinantem Faktor VIII [2]: auffallende Affinität

89 (EYKSWEYC) [compound 89]
Bindung zu pdFVIII (Faktor VIII aus Plasma) [1]: auffallende Affinität; also recorded: Bindung zu pdFVIII
Bindung von rekombinantem Faktor VIII [2]: auffallende Affinität

EYKSWEEF [Seq. Id. No. 90, Peptid, 8 Aminosäuren]
Bindung zu pdFVIII (Faktor VIII aus Plasma) [1]: auffallende Affinität; also recorded: Bindung zu pdFVIII
Bindung von rekombinantem Faktor VIII [2]: auffallende Affinität
Western Blot der Eluate [3]: positiv
Elutionspeak [3]: deutlich größer
